How the values were obtained:
FGFR1 = FGFR1 (Homo sapiens, UniProt P11362); test: Activity inhibition for FGFR1 kinase (Z′-LYTE biochemical assay, Invitrogen SelectScreen); details: ATP concentration based on Km
Description: (§1) For the synthesized compounds, inhibitory activity for FGFR1, 2, 3, 4 kinase was measured. Activity measurement was carried out by requesting to SelectScreen® Biochemical Kinase Profiling Service of Invitrogen. A Z′-LYTE® biochemical assay method was used, and the ATP concentration was set based on the Km value.

HUH7 cells = test: Proliferation inhibitory effect for HUH7 cells (SRB assay); assay type: cell-based; details: Homo sapiens, Huh-7, 72 hours, GI50, read-out: IC50 HUH7 Cell Line
Description: Test Example 2: Measuring Inhibitory Effect of FGFR Inhibitor Using Cell Line
The test was carried out for identifying a proliferation inhibitory effect of the compound of the present invention for HUH7 cells. HUH7 cell lines were counted and 5.0×10^3 cells were inoculated per well in a 96 well plate. After the innoculation, the cells were cultured for 24 hours in a 37 □ and 5% carbon dioxide (CO2) incubator. On the next day, the synthesized compounds were each diluted and prepared. The diluted compounds were introduced to the cell lines inoculated the previous day by concentrations, and reacted for 72 hours in a 37 □ and 5% carbon dioxide (CO2) incubator. However, to a positive control to which the compound was not added, 0.1% dimethyl sulfoxide (DMSO) diluted with a medium was introduced. To a negative control plate, a trichloroacetic acid (TCA) solution was introduced, and fixed at 4 □. After reacting for 72 hours, the medium including the compound was removed, a TCA solution was added thereto, and the cells were fixed for 30 minutes to 60 minutes at 4 □. The TCA solution was discarded, the plate was washed off with distilled water and then dried in the air. A 0.4% sulforhodamin B (SRB) solution was added to the plate and dyed for 10 minutes at room temperature. The plate was washed off with tap water including a 1% acetic acid solution, and then dried in the air. A 10 mM Trizma base solution was added to dissolve the solid SRB. Using a microplate reader, optical density (O.D. value) was measured at 540 nm. A GI50 value of each of the compounds was calculated using GraphPad Prism V6.0 Software.

FGFR4 = FGFR4 (Homo sapiens, UniProt P22455); test: Activity inhibition for FGFR4 kinase (Z′-LYTE biochemical assay, Invitrogen SelectScreen); details: ATP concentration based on Km
FGFR4, sequence (P22455 22-802): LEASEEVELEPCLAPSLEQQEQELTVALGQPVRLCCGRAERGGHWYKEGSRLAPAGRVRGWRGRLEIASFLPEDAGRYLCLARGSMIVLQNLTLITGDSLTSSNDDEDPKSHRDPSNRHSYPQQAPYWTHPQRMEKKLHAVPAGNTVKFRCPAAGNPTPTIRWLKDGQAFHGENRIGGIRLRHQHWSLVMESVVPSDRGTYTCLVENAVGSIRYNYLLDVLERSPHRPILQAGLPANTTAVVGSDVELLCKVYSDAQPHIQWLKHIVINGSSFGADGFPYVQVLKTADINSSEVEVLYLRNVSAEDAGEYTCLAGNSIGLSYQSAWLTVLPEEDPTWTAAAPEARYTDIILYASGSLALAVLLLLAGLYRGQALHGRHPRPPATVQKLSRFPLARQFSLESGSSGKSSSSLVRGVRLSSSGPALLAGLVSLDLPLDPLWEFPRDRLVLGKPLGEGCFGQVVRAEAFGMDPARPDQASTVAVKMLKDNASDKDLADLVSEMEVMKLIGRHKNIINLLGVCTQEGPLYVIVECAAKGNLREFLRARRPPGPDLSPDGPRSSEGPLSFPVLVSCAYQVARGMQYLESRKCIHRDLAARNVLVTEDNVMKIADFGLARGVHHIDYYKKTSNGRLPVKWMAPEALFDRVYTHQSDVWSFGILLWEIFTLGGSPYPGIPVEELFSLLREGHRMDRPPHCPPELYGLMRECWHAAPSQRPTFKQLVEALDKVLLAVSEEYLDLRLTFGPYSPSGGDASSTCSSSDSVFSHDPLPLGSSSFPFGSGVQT
Description: as §1

FGFR1, sequence (P11362 22-822): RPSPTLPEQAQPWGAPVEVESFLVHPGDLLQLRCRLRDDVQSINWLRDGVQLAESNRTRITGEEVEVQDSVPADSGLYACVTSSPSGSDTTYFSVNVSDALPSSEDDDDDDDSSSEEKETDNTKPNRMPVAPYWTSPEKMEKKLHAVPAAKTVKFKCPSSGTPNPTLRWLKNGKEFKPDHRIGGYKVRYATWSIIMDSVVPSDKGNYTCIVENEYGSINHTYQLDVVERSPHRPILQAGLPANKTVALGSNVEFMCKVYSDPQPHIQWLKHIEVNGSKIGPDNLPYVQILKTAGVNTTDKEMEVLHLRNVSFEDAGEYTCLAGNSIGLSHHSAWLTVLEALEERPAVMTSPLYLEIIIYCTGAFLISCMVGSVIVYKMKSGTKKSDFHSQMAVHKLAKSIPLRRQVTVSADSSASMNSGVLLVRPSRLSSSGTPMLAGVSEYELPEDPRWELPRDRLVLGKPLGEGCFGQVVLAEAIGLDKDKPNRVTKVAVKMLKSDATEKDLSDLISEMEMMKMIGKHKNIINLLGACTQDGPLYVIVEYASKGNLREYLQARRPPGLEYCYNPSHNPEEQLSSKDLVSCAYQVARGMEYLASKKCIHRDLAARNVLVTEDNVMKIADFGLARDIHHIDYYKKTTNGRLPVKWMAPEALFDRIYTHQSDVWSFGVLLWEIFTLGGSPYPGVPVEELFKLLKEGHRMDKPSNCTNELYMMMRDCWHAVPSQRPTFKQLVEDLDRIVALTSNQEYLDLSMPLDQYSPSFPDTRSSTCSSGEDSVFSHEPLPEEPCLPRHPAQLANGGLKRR

| Structure (SMILES) | IC50 (FGFR1) [nM] | IC50 (HUH7 cells) [nM] | IC50 (FGFR4) [nM] |
| --- | --- | --- | --- |
| C=CC(=O)Nc1cccc(F)c1Nc1ncc2cc(-c3c(F)c(OC)cc(OC)c3F)c3nccn3c2n1 [Synthesis Example 72, N-(2-((6-(2,6-difluoro-3,5-dimethoxyphenyl)imidazo[1′,2′:1,6]pyrido[2,3-d]pyrimidin-2-yl)amino)-3-fluorophenyl)acrylamide] | > 500 | < 50 | < 50 |
| C=CC(=O)Nc1cc(N2CCOCC2)ccc1Nc1cc2c(cn1)cc(-c1c(Cl)c(OC)cc(OC)c1Cl)c1nccn12 [Synthesis Example 83, N-(2-((4-(2,6-dichloro-3,5-dimethoxyphenyl)imidazo[1,2-a][1,6]naphthyridin-8-yl)amino)-5-morpholinophenyl)acrylamide] | < 50 | < 50 | < 50 |
| C=CC(=O)Nc1cccc(C)c1Nc1ncc2cc(-c3c(Cl)c(OC)cc(OC)c3Cl)c3nccn3c2n1 [compound 9] | > 500 | 50 to 500 | < 50 |
| C=CC(=O)Nc1cccc(F)c1Nc1ncc2cc(-c3c(Cl)c(OC)cc(OC)c3Cl)c3nccn3c2n1 [compound 10] | 50 to 500 | < 50 | < 50 |
| C=CC(=O)Nc1cccc(OC)c1Nc1ncc2cc(-c3c(Cl)c(OC)cc(OC)c3Cl)c3nccn3c2n1 [compound 11] | 50 to 500 | 50 to 500 | < 50 |
| C=CC(=O)Nc1cc(S(C)(=O)=O)ccc1Nc1ncc2cc(-c3c(Cl)c(OC)cc(OC)c3Cl)c3nccn3c2n1 [compound 18] | < 50 | 50 to 500 | < 50 |
| C=CC(=O)Nc1cc(N(C)CCOC)ccc1Nc1ncc2cc(-c3c(Cl)c(OC)cc(OC)c3Cl)c3nccn3c2n1 [compound 25] | < 50 | < 50 | < 50 |
| C=CC(=O)Nc1cc(OC(C)C)ccc1Nc1ncc2cc(-c3c(Cl)c(OC)cc(OC)c3Cl)c3nccn3c2n1 [compound 28] |  | < 50 |  |
| C=CC(=O)Nc1cc(OCCOC)ccc1Nc1ncc2cc(-c3c(Cl)c(OC)cc(OC)c3Cl)c3nccn3c2n1 [compound 29] | < 50 | < 50 | < 50 |
| C=CC(=O)Nc1cc(OCCN(C)C)ccc1Nc1ncc2cc(-c3c(Cl)c(OC)cc(OC)c3Cl)c3nccn3c2n1 [compound 30] |  | < 50 |  |
| C=CC(=O)Nc1cc(N2CCN(CC)CC2)ccc1Nc1ncc2cc(-c3c(Cl)c(OC)cc(OC)c3Cl)c3nccn3c2n1 [compound 31] |  | < 50 | < 50 |
| C=CC(=O)Nc1cc(N2CCOCC2)ccc1Nc1ncc2cc(-c3c(Cl)c(OC)cc(OC)c3Cl)c3nccn3c2n1 [compound 32] |  | < 50 | < 50 |
| C=CC(=O)Nc1cc(N2CCCC2)ccc1Nc1ncc2cc(-c3c(Cl)c(OC)cc(OC)c3Cl)c3nccn3c2n1 [compound 33] |  | 50 to 500 |  |
| COc1cc(OC)c(Cl)c(-c2cc3cnc(Nc4ccc(N5CCOCC5)cc4NC(=O)/C=C/CN(C)C)nc3n3ccnc23)c1Cl [compound 34] |  | 50 to 500 |  |
| C=CC(=O)Nc1cc(N2CCC(OC)CC2)ccc1Nc1ncc2cc(-c3c(Cl)c(OC)cc(OC)c3Cl)c3nccn3c2n1 [compound 40] |  | < 50 |  |
| C=CC(=O)Nc1cc(N2CCC(OC)C2)ccc1Nc1ncc2cc(-c3c(Cl)c(OC)cc(OC)c3Cl)c3nccn3c2n1 (centres unmarked) [compound 41] |  | < 50 |  |
| C=CC(=O)Nc1cc(N2CCN(C(=O)C3CC3)CC2)ccc1Nc1ncc2cc(-c3c(Cl)c(OC)cc(OC)c3Cl)c3nccn3c2n1 [compound 42] |  | < 50 |  |
| C=CC(=O)Nc1cc(N2CCN(CC3CC3)CC2)ccc1Nc1ncc2cc(-c3c(Cl)c(OC)cc(OC)c3Cl)c3nccn3c2n1 [compound 43] |  | < 50 |  |
| C=CC(=O)Nc1cc(N2CC[C@H](OC)C2)ccc1Nc1ncc2cc(-c3c(Cl)c(OC)cc(OC)c3Cl)c3nccn3c2n1 [compound 44] |  | < 50 |  |
| C=CC(=O)Nc1cc(N2CC(O)C2)ccc1Nc1ncc2cc(-c3c(Cl)c(OC)cc(OC)c3Cl)c3nccn3c2n1 [compound 45] |  | < 50 |  |
| C=CC(=O)Nc1cc(N2CCN(CCOC)CC2)ccc1Nc1ncc2cc(-c3c(Cl)c(OC)cc(OC)c3Cl)c3nccn3c2n1 [compound 46] |  | < 50 |  |
| COc1cc(OC)c(Cl)c(-c2cc3cnc(Nc4ccc(N5CCOCC5)cc4NC(=O)/C=C\Cl)nc3n3ccnc23)c1Cl [compound 47] |  | < 50 |  |
| C=CC(=O)Nc1cc(N2CCOC(C)C2)ccc1Nc1ncc2cc(-c3c(Cl)c(OC)cc(OC)c3Cl)c3nccn3c2n1 (centres unmarked) [compound 49] |  | < 50 |  |
| C=CC(=O)Nc1cc(N2CCC[C@H]2COC)ccc1Nc1ncc2cc(-c3c(Cl)c(OC)cc(OC)c3Cl)c3nccn3c2n1 [compound 50] |  | < 50 |  |
| C=CC(=O)Nc1cc(N2CCN(C3CC3)CC2)ccc1Nc1ncc2cc(-c3c(Cl)c(OC)cc(OC)c3Cl)c3nccn3c2n1 [compound 51] |  | 50 to 500 |  |
| C=CC(=O)Nc1cc(O[C@@H]2CCOC2)ccc1Nc1ncc2cc(-c3c(Cl)c(OC)cc(OC)c3Cl)c3nccn3c2n1 [compound 53] |  | < 50 | < 50 |
| C=CC(=O)Nc1cc(N2CCOCC2)ccc1Nc1ncc2cc(-c3c(F)c(OC)cc(OC)c3F)c3nccn3c2n1 [compound 73] |  | < 50 |  |

Now from value to compound:

| IC50 (FGFR1) [nM] | IC50 (HUH7 cells) [nM] | IC50 (FGFR4) [nM] | Structure (SMILES) |
| --- | --- | --- | --- |
|  | 50 to 500 |  | C=CC(=O)Nc1cc(OC2CCN(CC(F)(F)F)CC2)ccc1Nc1ncc2cc(-c3c(Cl)c(OC)cc(OC)c3Cl)c3nccn3c2n1 [compound 55] |
|  | < 50 |  | C=CC(=O)Nc1cc(OC2CCN(CC)CC2)ccc1Nc1ncc2cc(-c3c(Cl)c(OC)cc(OC)c3Cl)c3nccn3c2n1 [compound 56] |
|  | 50 to 500 |  | C=CC(=O)Nc1cc2c(cc1Nc1ncc3cc(-c4c(Cl)c(OC)cc(OC)c4Cl)c4nccn4c3n1)CCC2 [compound 57] |
|  | < 50 |  | C=CC(=O)Nc1cc(O[C@@H]2CCOC2)c(F)cc1Nc1ncc2cc(-c3c(Cl)c(OC)cc(OC)c3Cl)c3nccn3c2n1 [compound 59] |
|  | 50 to 500 |  | C=CC(=O)Nc1cc(O[C@@H]2CCOC2)c(C)cc1Nc1ncc2cc(-c3c(Cl)c(OC)cc(OC)c3Cl)c3nccn3c2n1 [compound 60] |
|  | < 50 |  | C=CC(=O)Nc1cc(OC2CCN(C)CC2)c(F)cc1Nc1ncc2cc(-c3c(Cl)c(OC)cc(OC)c3Cl)c3nccn3c2n1 [compound 62] |
|  | > 500 |  | C=CC(=O)Nc1cc(F)cc(C)c1Nc1ncc2cc(-c3c(Cl)c(OC)cc(OC)c3Cl)c3nccn3c2n1 [compound 64] |
|  | 50 to 500 |  | C=CC(=O)Nc1cc(N2CCOCC2)cc(OC)c1Nc1ncc2cc(-c3c(Cl)c(OC)cc(OC)c3Cl)c3nccn3c2n1 [compound 65] |
|  | > 500 |  | C=CC(=O)Nc1cc(N2CCN(CC)CC2)cc(F)c1Nc1ncc2cc(-c3c(Cl)c(OC)cc(OC)c3Cl)c3nccn3c2n1 [compound 66] |
|  | 50 to 500 |  | C=CC(=O)Nc1cc(N2CCOCC2)cc(F)c1Nc1ncc2cc(-c3c(Cl)c(OC)cc(OC)c3Cl)c3nccn3c2n1 [compound 67] |
|  | > 500 |  | C=CC(=O)Nc1cc(N2CCOCC2)cc(Cl)c1Nc1ncc2cc(-c3c(Cl)c(OC)cc(OC)c3Cl)c3nccn3c2n1 [compound 68] |
|  | 50 to 500 |  | C=CC(=O)Nc1cccnc1Nc1ncc2cc(-c3c(Cl)c(OC)cc(OC)c3Cl)c3nccn3c2n1 [compound 69] |
|  | 50 to 500 |  | C=CC(=O)Nc1cc(N2CCOCC2)cnc1Nc1ncc2cc(-c3c(Cl)c(OC)cc(OC)c3Cl)c3nccn3c2n1 [compound 70] |
|  | 50 to 500 |  | C=CC(=O)Nc1cn(C)nc1Nc1ncc2cc(-c3c(Cl)c(OC)cc(OC)c3Cl)c3nccn3c2n1 [compound 71] |
|  | < 50 |  | C=CC(=O)Nc1cccc(Nc2ncc3cc(-c4c(F)c(OC)cc(OC)c4F)c4nccn4c3n2)c1 [compound 74] |
|  | < 50 |  | C=CC(=O)Nc1ccccc1Nc1ncc2cc(-c3c(F)c(OC)cc(OC)c3F)c3nccn3c2n1 [compound 75] |
|  | 50 to 500 |  | C=CC(=O)Nc1cc(F)cc(F)c1Nc1ncc2cc(-c3c(F)c(OC)cc(OC)c3F)c3nccn3c2n1 [compound 76] |
|  | 50 to 500 |  | C=CC(=O)Nc1cc(F)c(F)cc1Nc1ncc2cc(-c3c(F)c(OC)cc(OC)c3F)c3nccn3c2n1 [compound 77] |
|  | 50 to 500 |  | C=CC(=O)Nc1ccc(F)c(F)c1Nc1ncc2cc(-c3c(F)c(OC)cc(OC)c3F)c3nccn3c2n1 [compound 78] |
|  | 50 to 500 |  | C=CC(=O)Nc1cccc(Cl)c1Nc1ncc2cc(-c3c(F)c(OC)cc(OC)c3F)c3nccn3c2n1 [compound 79] |
|  | > 500 |  | COc1cc(OC)c(Cl)c(-c2cc3cnc(-c4cncc(N5CCOCC5)c4)nc3n3ccnc23)c1Cl [compound 81] |
|  | > 500 |  | C=CC(=O)Nc1cc(-c2ncc3cc(-c4c(Cl)c(OC)cc(OC)c4Cl)c4nccn4c3n2)cc(N2CCOCC2)c1 [compound 82] |
|  | < 50 |  | C=CC(=O)Nc1cc(N2C[C@@H](C)O[C@@H](C)C2)ccc1Nc1cc2c(cn1)cc(-c1c(Cl)c(OC)cc(OC)c1Cl)c1nccn12 [compound 84] |
|  | < 50 |  | C=CC(=O)Nc1cc(N2CCOCC2)cnc1Nc1cc2c(cn1)cc(-c1c(Cl)c(OC)cc(OC)c1Cl)c1nccn12 [compound 86] |
|  | < 50 |  | C=CC(=O)Nc1cn(C)nc1Nc1cc2c(cn1)cc(-c1c(Cl)c(OC)cc(OC)c1Cl)c1nccn12 [compound 87] |

Reference: patent US10696675B2, “Imidazopyridopyrimidine derivative compound and use thereof” (HANMI PHARMACEUTICAL CO., LTD., priority 2016, dated 2020)
